According to the CheMixHub viscosity set:

Experiment: xn = mol fraction of the nth substance listed

CCCN + C=C(C)C(=O)OC
303.15 K, 101 kPa
Details | viscosity [mPa·s]
x2 = 0.1506 | 0.382
x2 = 0.3776 | 0.4355
x2 = 0.5053 | 0.4623
x2 = 0.6058 | 0.4809
x2 = 0.8285 | 0.5081

Nc1ncnc2[nH]cnc12 + O
viscosity [mPa·s], 101.3 kPa
Details | 293.15 K | 298.15 K | 303.15 K | 308.15 K | 313.15 K | 318.15 K
x1 = 9.33e-05 | 1.006 | 0.895 | 0.803 | 0.738 | 0.623 | 0.595
x1 = 0.0001925 | 1.009 | 0.898 | 0.806 | 0.741 | 0.626 | 0.598
x1 = 0.0002792 | 1.011 | 0.9 | 0.808 | 0.743 | 0.628 | 0.6
x1 = 0.0003724 | 1.013 | 0.902 | 0.81 | 0.745 | 0.63 | 0.602
x1 = 0.0004489 | 1.015 | 0.904 | 0.812 | 0.747 | 0.632 | 0.604
x1 = 0.0005443 | 1.017 | 0.906 | 0.814 | 0.749 | 0.634 | 0.606

[K+].[OH-] + O
323.15 K, 101 kPa
Details | viscosity [mPa·s]
x1 = 0.009 | 0.586
x1 = 0.026 | 0.67
x1 = 0.059 | 0.853
x1 = 0.08 | 1.01
x1 = 0.1 | 1.26
x1 = 0.2 | 1.75
x1 = 0.21 | 2.84
x1 = 0.3 | 4.62

CCCCCCCC(=O)O + CCCCCC(=O)[O-].[Na+]
100 kPa, x2 = 0.3
Details | viscosity [mPa·s]
293.15 K | 305.9
298.15 K | 226.5
303.15 K | 171.1
308.15 K | 131.6
313.15 K | 103
318.15 K | 81.7
323.15 K | 65.7

CC(C)c1ccccc1 + CCO
viscosity [mPa·s], 101 kPa
Details | x1 = 0.0663 | x1 = 0.1236 | x1 = 0.2015 | x1 = 0.2971 | x1 = 0.4052 | x1 = 0.5656 | x1 = 0.7293
298.15 K | 1.036 | 0.982 | 0.926 | 0.878 | 0.836 | 0.796 | 0.764
308.15 K | 0.897 | 0.86 | 0.81 | 0.753 | 0.7 | 0.653 | 0.64

CCCN + CCC(C)O
303.15 K, 101 kPa
Details | viscosity [mPa·s]
x1 = 0.008438 | 2.439
x1 = 0.01874 | 2.408
x1 = 0.02903 | 2.377
x1 = 0.04186 | 2.343
x1 = 0.0458 | 2.329
x1 = 0.05767 | 2.3
x1 = 0.06786 | 2.277
x1 = 0.07593 | 2.253
x1 = 0.08515 | 2.224

C=COC(C)=O + CCCCO
303.15 K, 101.33 kPa
Details | viscosity [mPa·s]
x1 = 0.1008 | 1.622
x1 = 0.1999 | 1.211
x1 = 0.3008 | 0.944
x1 = 0.3993 | 0.768
x1 = 0.5055 | 0.634
x1 = 0.6002 | 0.547
x1 = 0.6998 | 0.482
x1 = 0.7997 | 0.433
x1 = 0.8749 | 0.405

CCCN + CCCCOCCOCCO
298.15 K, 101 kPa
Details | viscosity [mPa·s]
x2 = 0.0104 | 0.381
x2 = 0.0212 | 0.404
x2 = 0.0381 | 0.44
x2 = 0.0898 | 0.562
x2 = 0.1063 | 0.602
x2 = 0.129 | 0.668
x2 = 0.164 | 0.78
x2 = 0.1944 | 0.884
x2 = 0.2231 | 1.003
x2 = 0.2623 | 1.178
x2 = 0.3079 | 1.4
x2 = 0.327 | 1.505
x2 = 0.3856 | 1.851
x2 = 0.4114 | 2.011
x2 = 0.4443 | 2.23
x2 = 0.4782 | 2.46
x2 = 0.5424 | 2.9
x2 = 0.5729 | 3.115
x2 = 0.6163 | 3.404
x2 = 0.6419 | 3.571
x2 = 0.6779 | 3.79
x2 = 0.7205 | 4.031
x2 = 0.7508 | 4.193
x2 = 0.7957 | 4.402
x2 = 0.8278 | 4.535
x2 = 0.8577 | 4.647
x2 = 0.8744 | 4.703
x2 = 0.9181 | 4.837
x2 = 0.9513 | 4.925
x2 = 0.9752 | 4.986

Oc1ccccc1Cl + CO
Details | viscosity [mPa·s]
303.15 K, 101 kPa, x1 = 0.2447 | 1.911

CCCCOC(C)=O + CS(C)=O
viscosity [mPa·s], 101.33 kPa
Details | x2 = 0.074 | x2 = 0.1418 | x2 = 0.2774 | x2 = 0.46 | x2 = 0.5396 | x2 = 0.6383 | x2 = 0.7272 | x2 = 0.809 | x2 = 0.9021 | x2 = 0.9703
293.15 K | 0.774 | 0.789 | 0.868 | 1.011 | 1.098 | 1.211 | 1.363 | 1.527 | 1.791 | 2.063
303.15 K | 0.678 | 0.692 | 0.752 | 0.879 | 0.931 | 1.032 | 1.146 | 1.28 | 1.488 | 1.697
313.15 K | 0.592 | 0.606 | 0.662 | 0.766 | 0.809 | 0.889 | 0.983 | 1.117 | 1.258 | 1.423
